Literature values, collected in US20040038863A1, “Medical indication” (priority 2002, published 2004).

Conditions: in postmenopausal women; background value used to set the washout period

## C=C1C[C@@H]2[C@H](CC[C@]3(C)C(=O)CC[C@@H]23)[C@@]2(C)C=CC(=O)C=C12 [exemestane, 6-methylenandrosta-1,4-diene-3,17-dione]
  terminal elimination half-life: approximately 24 hours
